The record followed here is a polymer gas permeability compilation.

Turning to `*c1ccc(Cc2ccc(N3C(=O)c4ccc(Oc5ccc(C(c6ccc(Oc7ccc8c(c7)C(=O)N(*)C8=O)cc6)(C(F)(F)F)C(F)(F)F)cc5)cc4C3=O)cc2)cc1` (repeat unit), the H2 permeability amounted to 8.31 Barrer, the N2 permeability was 0.076 Barrer and the O2 permeability was determined as 0.501 Barrer.
Regarding `*Oc1ccc(C(C)(c2ccccc2)c2ccc(OC(=O)c3cccc(C(*)=O)c3)cc2)cc1` (repeat unit), the CH4 permeability stood at 0.59 Barrer, the CO2 permeability came out at 13.1 Barrer, the N2 permeability came to 0.54 Barrer and the O2 permeability is 2.58 Barrer.
In turn, `*=CC1CCC(C=*)C1` (repeat unit) came in with a CH4 permeability of 2.5 Barrer, a CO2 permeability of 15.4 Barrer, an H2 permeability of 21 Barrer and an N2 permeability of 1.5 Barrer. Further, the O2 permeability came to 2.8 Barrer.
Turning to `*O[Si](C)(C)c1ccc([Si](*)(C)C)cc1` (repeat unit), the CH4 permeability amounted to 12 Barrer, the CO2 permeability came out at 65 Barrer and the O2 permeability was 11 Barrer.
The molecule `*/C=C/c1ccc(*)cc1[Si](C)(C)CCCC` (repeat unit) had a CO2 permeability of 14 Barrer, an N2 permeability of 1.1 Barrer and an O2 permeability of 3.5 Barrer.
`*OC(=O)c1ccc(C(=O)Oc2ccc(C3(c4ccc(O*)c(C)c4)OC(=O)c4ccccc43)cc2C)cc1` (repeat unit) gave a CH4 permeability of 0.18 Barrer, a CO2 permeability of 5 Barrer, an N2 permeability of 0.15 Barrer and an O2 permeability of 1.04 Barrer.
In turn, `*c1ccc(C(c2ccc(-c3nnc(*)o3)cc2)(C(F)(F)F)C(F)(F)F)cc1` (repeat unit) came in with a CH4 permeability of 4.55 Barrer, a CO2 permeability of 123 Barrer and an N2 permeability of 6.1 Barrer.
In the case of `*=CC1CC(C=*)C(COS(=O)(=O)c2ccc(C)cc2)C1` (repeat unit), the N2 permeability is 0.06 Barrer and the O2 permeability is 0.37 Barrer.
As to `*CN1CN(*)c2cc3c(cc21)C1(C(C)C)c2ccccc2C3(C(C)C)c2cc(*)c(*)cc21` (repeat unit), the CH4 permeability was found to be 215 Barrer, the H2 permeability came out at 4740 Barrer, the N2 permeability was 188 Barrer and the O2 permeability was determined as 1070 Barrer.
In the case of `*C(=C(*)c1ccc2c(c1)C(C)(C)c1ccccc1-2)c1cccc(F)c1` (repeat unit), the CH4 permeability is 11000 Barrer, the CO2 permeability was found to be 18000 Barrer, the H2 permeability came out at 9900 Barrer and the N2 permeability came out at 4200 Barrer. Also, the O2 permeability was determined as 5900 Barrer.
In turn, `*Nc1cccc(NC(=O)c2ccc(C(c3ccc(C(*)=O)cc3)(C(F)(F)F)C(F)(F)F)cc2)c1` (repeat unit) registered a CH4 permeability of 0.24 Barrer, a CO2 permeability of 8.4 Barrer, an H2 permeability of 23 Barrer and an N2 permeability of 0.4 Barrer. This molecule also yielded an O2 permeability of 2.2 Barrer.
`*c1ccc(Oc2ccc(N3C(=O)c4cc(Oc5ccc(C(C)(C)C)cc5)c(-c5cc6c(cc5Oc5ccc(C(C)(C)C)cc5)C(=O)N(*)C6=O)cc4C3=O)cc2)cc1` (repeat unit): the CH4 permeability turned out to be 3.16 Barrer, the CO2 permeability was determined as 85.6 Barrer, the N2 permeability was 2.95 Barrer and the O2 permeability stood at 11.3 Barrer.
Molecule `*c1ccc(-c2ccc(N3C(=O)c4ccc([Si](C)(C)c5ccc6c(c5)C(=O)N(*)C6=O)cc4C3=O)cc2)cc1` (repeat unit) yielded an H2 permeability of 8.38 Barrer, an N2 permeability of 0.109 Barrer and an O2 permeability of 0.677 Barrer.
Molecule `*Oc1ccc(C(=O)c2ccccc2-c2ccccc2C(=O)c2ccc(Oc3c(C)cc(-c4cc(C)c(*)c(C)c4)cc3C)cc2)cc1` (repeat unit) yielded a CH4 permeability of 0.264 Barrer, a CO2 permeability of 6.96 Barrer, an N2 permeability of 0.291 Barrer and an O2 permeability of 1.86 Barrer.
As to `*C(=C(*)c1ccc2c(c1)C(C)(C)C(C)(C)C2(C)C)c1ccccc1` (repeat unit), the CH4 permeability was determined as 24700 Barrer, the CO2 permeability stood at 35800 Barrer, the H2 permeability is 23600 Barrer and the N2 permeability stood at 10200 Barrer. The same molecule came in with an O2 permeability of 12700 Barrer.
Molecule `*C(=C(*)c1ccc([Si](C)(C)C)cc1)c1ccc(O[Si](C)(C)C(C)(C)C)cc1` (repeat unit) showed a CH4 permeability of 1100 Barrer, a CO2 permeability of 3800 Barrer, an H2 permeability of 1500 Barrer and an N2 permeability of 390 Barrer. The molecule also displayed an O2 permeability of 830 Barrer.
Regarding `*c1ccc(Oc2ccc(C(c3ccc(Oc4ccc(N5C(=O)c6ccc(C(=O)c7ccc8c(c7)C(=O)N(*)C8=O)cc6C5=O)cc4C(F)(F)F)cc3)(C(F)(F)F)C(F)(F)F)cc2)c(C(F)(F)F)c1` (repeat unit), the CH4 permeability came to 0.189 Barrer, the CO2 permeability amounted to 8.04 Barrer, the H2 permeability is 24.6 Barrer and the N2 permeability was 0.37 Barrer. The O2 permeability was found to be 2.44 Barrer.
Consider `*c1ccc(Oc2ccc(N3C(=O)c4ccc(Oc5ccc6c(c5)C(=O)N(*)C6=O)cc4C3=O)cc2)cc1` (repeat unit), for which the H2 permeability came to 4.77 Barrer, the N2 permeability amounted to 0.026 Barrer and the O2 permeability turned out to be 0.183 Barrer.
Take `*CO*` (repeat unit): the CO2 permeability stood at 0.45 Barrer, the N2 permeability was 0.024 Barrer and the O2 permeability came to 0.09 Barrer.
`*c1ccc(-c2ccc(C(*)(C(F)(F)F)C(F)(F)F)cc2)cc1` (repeat unit) displayed a CH4 permeability of 34 Barrer, a CO2 permeability of 470 Barrer, an H2 permeability of 470 Barrer and an N2 permeability of 41 Barrer. The O2 permeability is 120 Barrer.
Molecule `*O[Si](*)(C)C` (repeat unit) showed a CH4 permeability of 1350 Barrer, a CO2 permeability of 4180 Barrer, an H2 permeability of 890 Barrer and an N2 permeability of 351 Barrer. Besides, the O2 permeability worked out at 800 Barrer.
With `*c1ccc(-c2nnc(-c3cccc(-c4nnc(*)n4-c4ccccc4)c3)n2-c2ccccc2)cc1` (repeat unit), the CH4 permeability came out at 0.09 Barrer, the CO2 permeability is 5.2 Barrer, the N2 permeability worked out at 0.14 Barrer and the O2 permeability worked out at 1.16 Barrer.
In turn, `*C(C)=C(*)[Si](C)(C)C` (repeat unit) showed a CH4 permeability of 14500 Barrer, a CO2 permeability of 31900 Barrer, an H2 permeability of 15500 Barrer and an N2 permeability of 5650 Barrer. In addition, the O2 permeability stood at 12200 Barrer.
As for `*c1ccc(C(c2ccc(N3C(=O)c4ccc(C(c5ccc6c(c5)C(=O)N(*)C6=O)(C(F)(F)F)C(F)(F)F)cc4C3=O)cc2)(C(F)(F)F)C(F)(F)F)cc1` (repeat unit), the CH4 permeability amounted to 1.6 Barrer, the CO2 permeability stood at 63.9 Barrer, the H2 permeability worked out at 108 Barrer and the N2 permeability is 3.36 Barrer. This molecule had an O2 permeability of 16.2 Barrer.
`*C(=C(*)c1ccc(S(=O)(=O)O)cc1)c1ccc(C(C)(C)C)cc1` (repeat unit) registered a CO2 permeability of 340 Barrer, an N2 permeability of 11 Barrer and an O2 permeability of 45 Barrer.
In turn, `*c1ccc(Cc2ccc(N3C(=O)c4ccc(C(c5ccc6c(c5)C(=O)N(*)C6=O)(C(F)(F)F)C(F)(F)F)cc4C3=O)c(O)c2)cc1O` (repeat unit) yielded a CH4 permeability of 0.0562 Barrer, a CO2 permeability of 4.85 Barrer, an N2 permeability of 0.168 Barrer and an O2 permeability of 1.22 Barrer.
With `*Oc1ccc(C(=O)c2ccc(-c3ccc(C(=O)c4ccc(Oc5ccc(C(C)(C)c6ccc(*)cc6)cc5)cc4)cc3)cc2)cc1` (repeat unit), the CH4 permeability is 0.14 Barrer, the CO2 permeability came to 3.3 Barrer, the H2 permeability was 8.9 Barrer and the N2 permeability is 0.13 Barrer. This molecule displayed an O2 permeability of 0.75 Barrer.
As to `*C(=C(*)c1ccc2c(c1)C(C)(C)c1cc(Br)ccc1-2)c1ccccc1` (repeat unit), the CH4 permeability came out at 3000 Barrer, the CO2 permeability is 8000 Barrer, the H2 permeability came out at 3700 Barrer and the N2 permeability worked out at 1100 Barrer. The same molecule registered an O2 permeability of 2000 Barrer.
`*C(=C(*)c1ccc(C(C)(C)C)cc1)c1ccc(O)cc1` (repeat unit) came in with a CH4 permeability of 46 Barrer, a CO2 permeability of 530 Barrer, an H2 permeability of 340 Barrer and an N2 permeability of 23 Barrer. Further, the O2 permeability was 82 Barrer.
Take `*CC(*)OC(=O)c1ccc(C)cc1` (repeat unit): the CH4 permeability was determined as 0.417 Barrer, the CO2 permeability is 6.73 Barrer, the N2 permeability turned out to be 0.339 Barrer and the O2 permeability was determined as 1.72 Barrer.
Molecule `*Nc1ccc(Oc2c(F)c(F)c(Oc3ccc(NC(=O)CN4C(=O)c5ccc(C(*)=O)cc5C4=O)cc3)c(F)c2F)cc1` (repeat unit) yielded a CH4 permeability of 0.013 Barrer, a CO2 permeability of 1.27 Barrer, an N2 permeability of 0.071 Barrer and an O2 permeability of 0.284 Barrer.
`*Oc1ccc(S(=O)(=O)c2ccc(-c3ccc(S(=O)(=O)c4ccc(Oc5ccc(C(C)(C)c6ccc(*)cc6)cc5)cc4)cc3)cc2)cc1` (repeat unit): the CH4 permeability turned out to be 0.5 Barrer, the CO2 permeability was 10.8 Barrer, the H2 permeability worked out at 20.1 Barrer and the N2 permeability is 0.469 Barrer. Moreover, the O2 permeability was 2.39 Barrer.
Turning to `*CC1CC(C*)C2C1C([Si](O[Si](C)(C)C)(O[Si](C)(C)C)O[Si](C)(C)C)C2[Si](O[Si](C)(C)C)(O[Si](C)(C)C)O[Si](C)(C)C` (repeat unit), the CH4 permeability is 215 Barrer, the CO2 permeability came to 840 Barrer, the H2 permeability was 460 Barrer and the N2 permeability worked out at 75 Barrer. The molecule further returned an O2 permeability of 220 Barrer.
For the molecule `*C1C2CC(C1*)C([Si](C)(C)C)C2` (repeat unit), the CH4 permeability turned out to be 1090 Barrer, the H2 permeability amounted to 6700 Barrer and the O2 permeability was found to be 1700 Barrer.
The molecule `*OC(=O)c1ccc(C(=O)Oc2ccc(C3(c4ccc(O*)cc4)OC(=O)c4ccccc43)cc2)cc1` (repeat unit) came in with a CH4 permeability of 0.47 Barrer, a CO2 permeability of 11.7 Barrer, an N2 permeability of 0.41 Barrer and an O2 permeability of 2.15 Barrer.
